This is an account of results in ChEMBL document CHEMBL1133057, “Synthesis and in vitro antibacterial activity of 3-[N-methyl-N-(3-methyl-1,3-thiazolium-2-yl)aminolmethyl cephalosporin derivatives” (2000).

Molecules are shown by their SMILES. In brackets after ≈: the same amount, converted by molar mass.

Assay [1] deals with Staphylococcus aureus. The experiment in a line: Compound was tested in vitro for its minimum inhibitory concentration by serial 2-fold agar dilution Muller Hinton method against Staphylococcus aureus 285. Type of assay: functional.
The test system of assay [2] is Salmonella typhimurium. The experiment in a line: Compound was tested in vitro for its minimum inhibitory concentration by serial 2-fold agar dilution Muller Hinton method against Salmonella Typhimurium. Type of assay: functional, Salmonella enterica subsp. enterica serovar Typhimurium. To be noted: Salmonella enterica.
Assay [3] concerns Klebsiella aerogenes. The experiment in a line: Compound was tested in vitro for its minimum inhibitory concentration by serial 2-fold agar dilution Muller Hinton method against Klebsiella aerogenes 1522 E. In kind it is functional.
Assay [4] deals with Streptococcus pyogenes. The experiment in a line: Compound was tested in vitro for its minimum inhibitory concentration by serial 2-fold agar dilution Muller Hinton method against Streptococcus pyogenes A 308. In kind it is functional.
The subject of assay [5] is Enterobacter cloacae. The experiment in a line: Compound was tested in vitro for its minimum inhibitory concentration by serial 2-fold agar dilution Muller Hinton method against Enterobacter cloacae P99. In kind it is functional.
For assay [6], the system named is Escherichia coli. The experiment in a line: Compound was tested in vitro for its minimum inhibitory concentration by serial 2-fold agar dilution Muller Hinton method against Escherichia coli O 55. In kind it is functional.
The subject of assay [7] is Streptococcus pyogenes. The experiment in a line: Compound was tested in vitro for its minimum inhibitory concentration by serial 2-fold agar dilution Muller Hinton method against Streptococcus pyogenes A77. Type of assay: functional.
The test system of assay [8] is Pseudomonas aeruginosa. The experiment in a line: Compound was tested in vitro for its minimum inhibitory concentration by serial 2-fold agar dilution Muller Hinton method against Pseudomonas aeruginosa 1771. In kind it is functional.
For assay [9], the system named is Pseudomonas aeruginosa. The experiment in a line: Compound was tested in vitro for its minimum inhibitory concentration by serial 2-fold agar dilution Muller Hinton method against Pseudomonas aeruginosa 9027. In kind it is functional.
Assay [10] concerns Escherichia coli. The experiment in a line: Compound was tested in vitro for its minimum inhibitory concentration by serial 2-fold agar dilution Muller Hinton method against Escherichia coli TEM. In kind it is functional.
The test system of assay [11] is Klebsiella oxytoca. The experiment in a line: Compound was tested in vitro for its minimum inhibitory concentration by serial 2-fold agar dilution Muller Hinton method against Klebsiella oxytoca 1082 E. In kind it is functional.
The subject of assay [12] is Escherichia coli. The experiment in a line: Compound was tested in vitro for its minimum inhibitory concentration by serial 2-fold agar dilution Muller Hinton method against Escherichia coli DC 0. In kind it is functional.
For assay [13], the system named is Escherichia coli. The experiment in a line: Compound was tested in vitro for its minimum inhibitory concentration by serial 2-fold agar dilution Muller Hinton method against Escherichia coli 1507E. Type of assay: functional.
Assay [14] relates to Escherichia coli. The experiment in a line: Compound was tested in vitro for its minimum inhibitory concentration by serial 2-fold agar dilution Muller Hinton method against Escherichia coli DC 2. Type of assay: functional.
For assay [15], the system named is Staphylococcus aureus. The experiment in a line: Compound was tested in vitro for its minimum inhibitory concentration by serial 2-fold agar dilution Muller Hinton method against Staphylococcus aureus 503. Type of assay: functional.
The test system of assay [16] is Staphylococcus aureus. The experiment in a line: Compound was tested in vitro for its minimum inhibitory concentration by serial 2-fold agar dilution Muller Hinton method against Staphylococcus aureus SG511. Type of assay: functional.
In assay [17] the test system is Enterobacter cloacae. The experiment in a line: Compound was tested in vitro for its minimum inhibitory concentration by serial 2-fold agar dilution Muller Hinton method against Enterobacter cloacae 1321. Type of assay: functional.
Assay [18] concerns Pseudomonas aeruginosa. The experiment in a line: Compound was tested in vitro for its minimum inhibitory concentration by serial 2-fold agar dilution Muller Hinton method against Pseudomonas aeruginosa 1771 M. Type of assay: functional.
The subject of assay [19] is Streptococcus pyogenes. The experiment in a line: Compound was tested in vitro for its minimum inhibitory concentration by serial 2-fold agar dilution Muller Hinton method against Streptococcus pyogenes 8b. In kind it is functional.
Assay [20] deals with Pseudomonas aeruginosa. The experiment in a line: Compound was tested in vitro for its minimum inhibitory concentration by serial 2-fold agar dilution Muller Hinton method against Pseudomonas aeruginosa 1592 E. Type of assay: functional.

Take `CCOC(=O)c1sc(N(C)CC2=C(C(=O)[O-])N3C(=O)C(NC(=O)/C(=N\OC)c4csc(N)n4)C3SC2)[n+](C)c1C` (stereo not given): the MIC in assay [1] is 1.56 µg/mL (≈ 2.56 µM); in [2] it was 0.049 µg/mL (≈ 0.0804 µM); in assay [3], 0.049 µg/mL (≈ 0.0804 µM); in [4], 0.007 µg/mL (≈ 0.0115 µM); in [5], 3.12 µg/mL (≈ 5.13 µM); in [6] it was 0.049 µg/mL (≈ 0.0804 µM). For the same compound, the MIC in assay [7] was 0.004 µg/mL (≈ 0.00656 µM); in assay [8], 25 µg/mL (≈ 41 µM); in [9], 100 µg/mL (≈ 164 µM); in assay [10] it was 0.195 µg/mL (≈ 0.32 µM); in assay [11], 6.25 µg/mL (≈ 10.3 µM); in assay [12] it was 0.098 µg/mL (≈ 0.161 µM). For the same compound, the MIC was 0.098 µg/mL (≈ 0.161 µM) in assay [13]; 0.049 µg/mL (≈ 0.0804 µM) in assay [14]; 0.781 µg/mL (≈ 1.28 µM) in [15]; 1.56 µg/mL (≈ 2.56 µM) in [16]; 0.025 µg/mL (≈ 0.041 µM) in assay [17]; 1.56 µg/mL (≈ 2.56 µM) in assay [18]. The figures for the MIC in assay [19] and in assay [20] were 25 µg/mL (≈ 41 µM) and 50 µg/mL (≈ 82 µM), respectively.
For `CO/N=C(\C(=O)NC1C(=O)N2C(C(=O)[O-])=C(CN(C)c3sc(C(N)=O)c(C)[n+]3C)CSC12)c1csc(N)n1` (stereo not given), the MIC in [1] came to 0.781 µg/mL (≈ 1.34 µM); in assay [2], 0.049 µg/mL (≈ 0.0844 µM); in assay [3] it was 0.025 µg/mL (≈ 0.0431 µM); in [4], 0.007 µg/mL (≈ 0.0121 µM); in [5], 6.25 µg/mL (≈ 10.8 µM); in assay [6] it was 0.025 µg/mL (≈ 0.0431 µM). The MIC in [7] turned out to be 0.007 µg/mL (≈ 0.0121 µM); in assay [8], 6.25 µg/mL (≈ 10.8 µM); in assay [9], 50 µg/mL (≈ 86.1 µM); in assay [10], 0.049 µg/mL (≈ 0.0844 µM); in [11], 3.12 µg/mL (≈ 5.38 µM); in assay [12], 0.049 µg/mL (≈ 0.0844 µM). Besides, the MIC in assay [13] stood at 0.049 µg/mL (≈ 0.0844 µM); in assay [14], 0.025 µg/mL (≈ 0.0431 µM); in [15] it was 0.195 µg/mL (≈ 0.336 µM); in [16], 0.391 µg/mL (≈ 0.673 µM); in [17], 0.013 µg/mL (≈ 0.0224 µM); in assay [18], 0.781 µg/mL (≈ 1.34 µM). Also, the figures for the MIC in [19] and in assay [20] were 12.5 µg/mL (≈ 21.5 µM) and 25 µg/mL (≈ 43.1 µM), respectively.
On to `CCO/N=C(\C(=O)NC1C(=O)N2C(C(=O)[O-])=C(CN(C)c3sc4c([n+]3C)CCCC4)CSC12)c1csc(N)n1` (stereo not given), for which the MIC in assay [1] turned out to be 0.781 µg/mL (≈ 1.32 µM); in [2] it was 0.098 µg/mL (≈ 0.166 µM); in assay [3], 0.098 µg/mL (≈ 0.166 µM); in assay [4] it was 0.013 µg/mL (≈ 0.022 µM); in [5] it was 6.25 µg/mL (≈ 10.6 µM); in [6] it was 0.049 µg/mL (≈ 0.0828 µM). Also, the MIC in [7] amounted to 0.007 µg/mL (≈ 0.0118 µM); in assay [8] it was 6.25 µg/mL (≈ 10.6 µM); in assay [9] it was 25 µg/mL (≈ 42.2 µM); in assay [10] it was 0.195 µg/mL (≈ 0.33 µM); in assay [11], 3.12 µg/mL (≈ 5.28 µM); in [12] it was 0.098 µg/mL (≈ 0.166 µM). Also, the MIC in assay [13] is 0.195 µg/mL (≈ 0.33 µM); in assay [14], 0.025 µg/mL (≈ 0.0422 µM); in assay [15], 0.195 µg/mL (≈ 0.33 µM); in assay [16] it was 0.391 µg/mL (≈ 0.661 µM); in assay [17], 0.049 µg/mL (≈ 0.0828 µM); in [18], 0.391 µg/mL (≈ 0.661 µM). For the same compound, the MIC in assay [19] and in [20] was 25 µg/mL (≈ 42.2 µM) each time.
For `CO/N=C(\C(=O)NC1C(=O)N2C(C(=O)[O-])=C(CN(C)c3scc(C)[n+]3C)CSC12)c1csc(N)n1` (stereo not given), the MIC in [1] turned out to be 1.56 µg/mL (≈ 2.91 µM); in [2], 0.049 µg/mL (≈ 0.0911 µM); in assay [3], 0.049 µg/mL (≈ 0.0911 µM); in [4] it was 0.013 µg/mL (≈ 0.0242 µM); in assay [5] it was 25 µg/mL (≈ 46.5 µM); in assay [6], 0.025 µg/mL (≈ 0.0465 µM). The MIC turned out to be 0.004 µg/mL (≈ 0.00744 µM) in [7]; 12.5 µg/mL (≈ 23.2 µM) in assay [8]; 25 µg/mL (≈ 46.5 µM) in assay [9]; 0.049 µg/mL (≈ 0.0911 µM) in assay [10]; 6.25 µg/mL (≈ 11.6 µM) in assay [11]; 0.049 µg/mL (≈ 0.0911 µM) in assay [12]. Further, the minimum inhibitory concentration (MIC) was found to be 0.049 µg/mL (≈ 0.0911 µM) in [13]; 0.049 µg/mL (≈ 0.0911 µM) in assay [14]; 0.781 µg/mL (≈ 1.45 µM) in assay [15]; 0.781 µg/mL (≈ 1.45 µM) in [16]; 0.013 µg/mL (≈ 0.0242 µM) in assay [17]; 1.56 µg/mL (≈ 2.91 µM) in [18]. The MIC in [19] was over 100 µg/mL; in [20], 25 µg/mL (≈ 46.5 µM).
On to `CO/N=C(\C(=O)NC1C(=O)N2C(C(=O)[O-])=C(CN(C)c3sc(C)c(C)[n+]3C)CSC12)c1csc(N)n1` (stereo not given), for which the MIC in assay [1] was found to be 1.56 µg/mL (≈ 2.83 µM); in assay [2], 0.098 µg/mL (≈ 0.178 µM); in [3], 0.098 µg/mL (≈ 0.178 µM); in [4] it was 0.013 µg/mL (≈ 0.0236 µM); in assay [5] it was 12.5 µg/mL (≈ 22.7 µM); in [6] it was 0.025 µg/mL (≈ 0.0453 µM). The MIC worked out at 0.007 µg/mL (≈ 0.0127 µM) in assay [7]; 25 µg/mL (≈ 45.3 µM) in assay [8]; 50 µg/mL (≈ 90.6 µM) in assay [9]; 0.049 µg/mL (≈ 0.0888 µM) in assay [10]; 6.25 µg/mL (≈ 11.3 µM) in [11]; 0.049 µg/mL (≈ 0.0888 µM) in assay [12]. Also, the MIC in [13] was 0.049 µg/mL (≈ 0.0888 µM); in assay [14], 0.098 µg/mL (≈ 0.178 µM); in assay [15] it was 0.781 µg/mL (≈ 1.42 µM); in assay [16], 1.56 µg/mL (≈ 2.83 µM); in assay [17], 0.013 µg/mL (≈ 0.0236 µM); in assay [18], 1.56 µg/mL (≈ 2.83 µM). Moreover, the MIC in assay [19] was over 100 µg/mL; in assay [20], 50 µg/mL (≈ 90.6 µM).
